Data: ChEMBL document CHEMBL4387705, “Synthesis of new arylsulfonylspiroimidazolidine-2',4'-diones and study of their effect on stimulation of insulin release from MIN6 cell line, inhibition of human aldose reductase, sorbitol accumulations in various tissues and oxidative stress” (Eur J Med Chem, 2019)
The source made the active and inactive calls. No cut-off for these calls is given here.

Assays:
MIN6 [1] = assay: Antidiabetic activity in mouse MIN6 cells after 35 passages assessed as increase in insulin secretion incubated for 48 hrs presence of 1 mM glucose by ELISA; format: functional, cell-based
MIN6 [2] = assay: Cytotoxicity against mouse MIN6 cells assessed as reduction in cell viability up to 200 uM incubated for 24 hrs by MTT assay; format: cell-based; conditions: min6, 24 h
MIN6 [3] = assay: Antidiabetic activity in mouse MIN6 cells after 35 passages assessed as increase in insulin secretion at 100 uM in presence of 25 mM glucose by ELISA relative to control; format: functional
[4] = Cytotoxicity against HEK293 cells assessed as reduction in cell viability at 50 uM incubated for 48 hrs by MTT assay relative to control; format: cell-based; conditions: human, read-out: INH
MIN6 [5] = assay: Antidiabetic activity in mouse MIN6 cells after 83 passages assessed as increase in insulin secretion incubated for 48 hrs presence of 1 mM glucose by ELISA; format: functional, cell-based
MIN6 [6] = assay: Antidiabetic activity in mouse MIN6 cells after 83 passages assessed as increase in insulin secretion at 100 uM in presence of 25 mM glucose by ELISA relative to control; format: functional
Mus musculus = assay: Antihyperglycemic activity in alloxanized BALB/c mouse assessed as reduction in blood glucose level at 150 mg/kg, po measured after 8 hrs relative to control; format: functional
MIN6 [7] = assay: Antidiabetic activity in mouse MIN6 cells after 83 passages assessed as increase in insulin secretion incubated for 48 hrs presence of 25 mM glucose by ELISA; format: functional, cell-based
[8] = target: Aldo-keto reductase family 1 member A1 (Rattus norvegicus, UniProt P51635); assay: Inhibition of rat kidney ALR1 using DL-glyceraldehyde as substrate and NADPH preincubated for 5 mins followed by substrate addition and measured for 30 mins at 2 mins interval by spectrophotometry relative to control
[9] = Antioxidant activity assessed as DPPH radical scavenging activity at 10 uM incubated for 30 mins under dark condition by spectrophotometry; format: functional
[10] = Antioxidant activity assessed as DPPH radical scavenging activity at 50 uM incubated for 30 mins under dark condition by spectrophotometry; format: functional
[11] = Selectivity ratio of IC50 for rat kidney ALR1 IC50 to IC50 for human recombinant ALR2
MIN6 [12] = assay: Antidiabetic activity in mouse MIN6 cells after 35 passages assessed as increase in insulin secretion incubated for 48 hrs presence of 25 mM glucose by ELISA; format: functional, cell-based
[13] = Cytotoxicity against HEK293 cells assessed as reduction in cell viability at 25 uM incubated for 48 hrs by MTT assay relative to control; format: cell-based; conditions: human, read-out: INH
[14] = target: T1, Aldo-keto reductase family 1 member B1 (Homo sapiens, UniProt P15121); assay: Inhibition of human recombinant ALR2 expressed in Escherichia coli using DL-glyceraldehyde as substrate and NADPH preincubated for 5 mins followed by substrate addition and measured after 30 mins at 2 mins interval by spectrophotometry relative to control
[15] = Antioxidant activity assessed as DPPH radical scavenging activity at 100 uM incubated for 30 mins under dark condition by spectrophotometry; format: functional
[16] = target: T2, Aldo-keto reductase family 1 member B1 (Rattus norvegicus, UniProt P07943); assay: (§1) Inhibition of ALR2 in rat sciatic nerve assessed as reduction in sorbitol accumulation incubated for 3 hrs in presence of 28 mM glucose by gas chromatographic analysis
[17] = target: Aldo-keto reductase family 1 member B1 (Rattus norvegicus) (UniProt P07943); assay: as §1
[18] = Cytotoxicity against mouse MIN6 cells assessed as cell viability at 400 uM incubated for 24 hrs by MTT assay; format: cell-based; conditions: read-out: Activity
[19] = target: T2, Aldo-keto reductase family 1 member B1; assay: (§2) Inhibition of ALR2 in rat erythrocytes assessed as reduction in sorbitol accumulation incubated for 3 hrs in presence of 28 mM glucose by gas chromatographic analysis relative to control; format: cell-based
[20] = target: Aldo-keto reductase family 1 member B1 (Rattus norvegicus) (UniProt P07943); assay: as §2; format: cell-based
[21] = Cytotoxicity against HEK293 cells assessed as reduction in cell viability at 200 uM incubated for 48 hrs by MTT assay relative to control; format: cell-based; conditions: human, read-out: INH
MIN6 [22] = assay: Effect on cell morphology in mouse MIN6 cells assessed as cell viability up to 400 uM incubated for 24 hrs; format: cell-based; conditions: min6, 24 h
[23] = target: T2, Aldo-keto reductase family 1 member B1; assay: (§3) Inhibition of ALR2 in rat lens assessed as reduction in sorbitol accumulation incubated for 3 hrs in presence of 28 mM glucose by gas chromatographic analysis relative to control
[24] = target: Aldo-keto reductase family 1 member B1 (Rattus norvegicus) (UniProt P07943); assay: as §3
[25] = Cytotoxicity against HEK293 cells assessed as reduction in cell viability at 100 uM incubated for 48 hrs by MTT assay relative to control; format: cell-based; conditions: human, read-out: INH
[26] = target: T1, Aldo-keto reductase family 1 member B1; assay: Non-competitive Inhibition of ALR2 (unknown origin) using fixed level of D,L-glyceraldehyde as substrate at 20 uM in presence of varying level of NADPH by Lineweaver-Burk plot analysis
[27] = target: T1, Aldo-keto reductase family 1 member B1; assay: Uncompetitive Inhibition of ALR2 (unknown origin) using varying level of D,L-glyceraldehyde as substrate at 10 uM in presence of NADPH by Lineweaver-Burk plot analysis
[28] = target: T1, Aldo-keto reductase family 1 member B1; assay: Non-competitive Inhibition of ALR2 (unknown origin) using varying level of D,L-glyceraldehyde as substrate at 20 uM in presence of NADPH by Lineweaver-Burk plot analysis
[29] = target: T1, Aldo-keto reductase family 1 member B1; assay: Uncompetitive Inhibition of ALR2 (unknown origin) using fixed level of D,L-glyceraldehyde as substrate at 10 uM in presence of varying level of NADPH by Lineweaver-Burk plot analysis
[30] = system: CC(C)c1ccc(S(=O)(=O)N2C(=O)NC(=O)C23CCCc2ccccc23)cc1; assay: Uncompetitive Inhibition of ALR2 (unknown origin) assessed as substrate Km using varying level of D,L-glyceraldehyde as substrate at 10 uM in presence of NADPH by Lineweaver-Burk plot analysis (reference value: 0.585 mM); conditions: Homo sapiens

Sequence of Aldo-keto reductase family 1 member A1 (P51635 whole entry, looked up): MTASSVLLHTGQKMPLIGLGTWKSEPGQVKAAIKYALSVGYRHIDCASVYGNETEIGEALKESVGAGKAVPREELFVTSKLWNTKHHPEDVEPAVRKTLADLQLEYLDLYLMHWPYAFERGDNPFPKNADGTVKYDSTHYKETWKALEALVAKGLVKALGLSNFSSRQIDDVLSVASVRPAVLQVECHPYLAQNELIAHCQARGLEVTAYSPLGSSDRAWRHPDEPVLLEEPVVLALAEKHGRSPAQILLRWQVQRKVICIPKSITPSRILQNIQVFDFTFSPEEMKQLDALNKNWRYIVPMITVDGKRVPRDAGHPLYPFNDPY

Compound	Activity (MIN6 [2])	Activity (MIN6 [3]) [%]	cytotoxicity at 48 h, 50 µM [4] [%]	Activity (MIN6 [6]) [%]	IC50 [8] [µM]	inhibition [9] [%]	inhibition [10] [%]	Ratio IC50 [11]	cytotoxicity at 48 h, 25 µM [13] [%]	IC50 [14] [µM]	inhibition [15] [%]	IC50 [16] [µM]	inhibition [17]	viability at 24 h, 400 µM [18] [%]	IC50 [19] [µM]	inhibition [20]	cytotoxicity at 48 h, 200 µM [21] [%]	Activity (MIN6 [22])	IC50 [23] [µM]	inhibition [24]	other results
CC(=O)c1ccc(S(=O)(=O)N2C(=O)NC(=O)C23CCCc2ccccc23)cc1 (stereo not given)	Non-Toxic	370	23.2	228	32.2	25.2	39.7	53.7	16.3	0.64	75.5	0.67	Dose-dependent effect	81	0.6	Dose-dependent effect	34.6	Non-Toxic	0.65	Dose-dependent effect	Activity (MIN6 [1]): Active; Activity (MIN6 [5]): Active; inhibition in vivo at 150 mg/kg (Mus musculus): 52.2%; Activity (MIN6 [7]): Active; Activity (MIN6 [12]): Active; cytotoxicity at 48 h, 100 µM [25]: 26.6%
CCCCNC(=O)NS(=O)(=O)c1ccc(C)cc1 [TOLBUTAMIDE]		340		110																	Activity (MIN6 [1]): Active; Activity (MIN6 [5]): Active; inhibition in vivo at 150 mg/kg (Mus musculus): 47.2%; Activity (MIN6 [7]): Active; Activity (MIN6 [12]): Active
CC(C)c1ccc(S(=O)(=O)N2C(=O)NC(=O)C23CCCc2ccccc23)cc1 (stereo not given)	Non-Toxic	230	16.2	192	68.2	72.7	75.2	73.7	14.2	0.56	85.3	0.72	Dose-dependent effect	81	0.85	Dose-dependent effect	22.3	Non-Toxic	0.83	Dose-dependent effect	inhibition [26]: Active; inhibition [27]: Active; inhibition in vivo at 150 mg/kg (Mus musculus): 50.3%; inhibition [28]: Active; inhibition [29]: Active; cytotoxicity at 48 h, 100 µM [25]: 16.1%
Aldo-keto reductase family 1 member B1 (Homo sapiens) (from UniProt P15121)																					Km [30]: 537 µM
COc1ccc(S(=O)(=O)N2C(=O)NC(=O)C23CCCc2ccccc23)cc1 (stereo not given)	Non-Toxic	170	21.1	122	10.6	41.4	53.3	1.88	14	5.66	66.8	6.37	Dose-dependent effect	81	7.15	Dose-dependent effect	27.5	Non-Toxic	7.44	Dose-dependent effect	cytotoxicity at 48 h, 100 µM [25]: 25.2%
CC(C)c1ccc(S(=O)(=O)N2C(=O)NC3(CCCc4ccccc43)C2=O)cc1 (stereo not given)	Non-Toxic	295	12.5	84	32.5	82.3	84.2	4.05	10.1	8.02	92.3	13	Dose-dependent effect	81	10.3	Dose-dependent effect	18.5	Non-Toxic	10.7	Dose-dependent effect	Activity (MIN6 [1]): inactive; Activity (MIN6 [5]): inactive; Activity (MIN6 [12]): inactive; cytotoxicity at 48 h, 100 µM [25]: 12.6%
